Assay results published in US10213451B2, “Methods and compounds for modulating the secretion or expression of adhesion proteins or angiopoietins of cells” (PACIFIC ARROW LIMITED, priority 2004, dated 2019).

What was measured:
60 cancer cell lines = test: Test with 60 cancer cell lines; assay type: cell-based; details: most of 60 cancer cell lines tested
Experimental: To investigate the anti-tumor activity of Xanthoceras sorbifolia, we employed cancer cell lines derived from different human organs and tested the effect on growth activity. […] Intl App'l No. PCT/US04/33359 and U.S. Ser. No. 10/906,303. The active compound was then purified and named Xanifolia-Y. Its chemical structure was determined by 2D NMR and MS analysis. Xanifolia-Y is a novel triterpenoid saponin with a diangeloyl group attached at one end and carbohydrates or sugar moieties at another end of the triterpene structure. In an embodiment, the diangeloyl attached at C21, C22 positions and carbohydrates or sugar moieties at C3 position of a triterpene structure. The diangeloyl group is important for its activity. The purified compound has been tested with 60 cancer cell lines.

[1] = tested on: laminin expression in ES2 cells; test: Microarray gene expression, Table 3; assay type: cell-based, human; details: for LAMC1, gene expression ratio to no drug control (D): probe 200770_s_at; for LAMB1 laminin, beta 1, gene expression ratio to no drug control (D): probe 201505_at; for LAMA4 laminin, alpha 4, gene expression ratio to no drug control (D): probe 202202_s_at; for LAMB1, gene expression ratio to no drug control (D): probe 211651_s_at; for LAMB2, gene expression ratio to no drug control (D): probe 216264_s_at
Experimental: (§1) Y/D is the ratio (in folds) of gene expression in cells treated with compound Y as compared with those of the no drug control (D),
(§2) YM/D is the ratio of gene expression in cells treated with compound YM (ACH-Y, Y without sugar moiety) compared with those of the no drug control (D)
(§3) Cell culture and drug-treatment.: ES2 cells were seeded in a T-25 flask with 4.5 million cells per flask for 24 hours. Cell culture was replaced with fresh medium with xanifolia-Y (Y) or DMSO no drug control (D) for 24 hours. Cells were then harvested for RNA isolation. Three experiments were done.
(§4) RNA extraction, labeling, hybridization, and data analysis. RNA was extracted from tumor cells using the Qiagen RNeasy Kit. RNA quality and quantity was checked by the Agilent BioAnalyzer and the NanoDrop® ND-1000 spectrophotometer respectively before further manipulation. The first and second cDNA strands were synthesized from 20 ng of total RNA using the Affymetrix T7 oligo(dT) primer protocol and kit for the two-cycle amplification. To produce amplified biotin-labeled-cRNA, the cDNA was […] by in vitro transcription using the MegaScript kit from Ambion. 15.0 μg of the labeled cRNA was fragmented and re-checked for concentration using the NanoDrop® ND-1000 spectrophotometer. A hybridization cocktail containing Affymetrix spike-in controls and fragmented labeled cRNA was loaded onto the Human U133 Plus 2.0 GeneChip® oligonucleotide array. The Affymetrix array (Affymetrix, Inc. Santa Clara, Calif.) is comprised of over 1,300,000 unique oligonucleotide features that represent greater than 38,500 well-substantiated human genes. The array was hybridized for 16 hours at 45° C. with rotation at 60 rpm then washed and stained with a strepavidin, R-phycoerythrin conjugate stain on the Affymetrix Fluidicis Station 450. Signal amplification was done using biotinylated antistreptavidin. The arrays were scanned using the GeneChip® 3000 confocal laser scanner with autoloader. The images were analyzed and quality control metrics recorded using Affymetrix GCOS software version 1.4. Lastly, the expression value for each gene was calculated using dChip PM-only model based or Plier algorithm.
(§5) Pairwise comparisons were made as follows: Treated vs. Control (Y vs. D), Modified Drug vs Control (YM/ACY-H vs. D) and Treated vs. Modified Drug (Y vs. YM/ACH-Y) Cel files analyzed using the Bioconductor package of R Statistical programming. Limma analysis generated a reasonable number of changing genes between the samples.
(§6) The raw data in the .CEL files were normalized by the GCRMA method (robust multi-array analysis). It is implemented in Bioconductor (http://www.bioconductor.org/). The raw signal intensity data were normalized, background corrected and summarized based on certain statistical models, and an expression value, in log 2-scale, is obtained per chip per probe set. Then the null hypothesis was tested that there's no significant changes in gene expression between the treatment pairs. This was done by LIMMA and is also implemented in Bioconductor. It uses empirical Bayes method to estimate the variance in gene expression. One comparison was made, namely, High Grade vs. Low Grade. The raw p-values were adjusted by the Benjamnin-Hochberg method for false discovery rate (FDR) control. All data sets contained a significant number of genes with a p-value less than 0.05, which is that the probability that a gene is NOT differential expressed (false positive) is 1:20.

[2] = tested on: integrin expression in ES2 cells; test: Microarray gene expression, Table 6; assay type: cell-based, human; details: for ITGA3 integrin, alpha 3, gene expression ratio to no drug control (D): probe 201474_s_at; for ITGAV integrin, alpha V (vitronectin receptor), gene expression ratio to no drug control (D): probe 202351_at; for ITGB5 Integrin, beta 5, gene expression ratio to no drug control (D): probe 214021_x_at; for CD47 antigen (integrin-associated signal transducer), gene expression ratio to no drug control (D): probe 227259_at; for ITGB2 integrin, beta 2, gene expression ratio to no drug control (D): probe 1555349_a_at; for expression ratio to the control, integrin family: span over probes of Table 6
Experimental: as §1, §2, §3, §4, §5, §6

[3] = tested on: cadherins expression in ES2 cells; test: Microarray gene expression, Table 8; assay type: cell-based, human; details: for CTNNB1 catenin (cadherin-associated protein), beta 1, 88 kDa, gene expression ratio to no drug control (D): probe 201533_at; for CTNNAL1 catenin (cadherin-associated protein), alpha-like 1, gene expression ratio to no drug control (D): probe 202468_s_at; for CDH2 cadherin 2, type 1, N-cadherin (neuronal), gene expression ratio to no drug control (D): probe 203440_at; for CDH5 cadherin 5, type 2, VE-cadherin, gene expression ratio to no drug control (D): probe 204677_at; for CDH12 cadherin 12, type 2 (N-cadherin 2), gene expression ratio to no drug control (D): probe 207149_at; for CTNND1 catenin (cadherin-associated, protein), delta 1, gene expression ratio to no drug control (D): probe 208407_s_at; for CTNNA1 catenin (cadherin-associated protein), alpha 1, 102 kDa, gene expression ratio to no drug control (D): probe 210844_x_at
Experimental: as §1, §2, §3, §4, §5, §6

[4] = tested on: regulator of G-protein expression in ES2 cells; test: Microarray gene expression, Table 14; assay type: cell-based, human
Experimental: as §1, §2, §3, §4, §5, §6

| SMILES | LAMB1 laminin, beta 1, gene expression ratio to no drug control (D) [1] [folds] | LAMA4 laminin, alpha 4, gene expression ratio to no drug control (D) [1] [folds] | LAMB1, gene expression ratio to no drug control (D) [1] [folds] | LAMB2, gene expression ratio to no drug control (D) [1] [folds] | ITGA3 integrin, alpha 3, gene expression ratio to no drug control (D) [2] [folds] | ITGA6 integrin, alpha 6, gene expression ratio to no drug control (D) ([2]; probe 201656_at) [folds] | ITGAV integrin, alpha V (vitronectin receptor), gene expression ratio to no drug control (D) [2] [folds] | ITGBL1 Integrin, beta-like 1, gene expression ratio to no drug control (D) ([2]; probe 205422_s_at) [folds] | ITGA4 integrin, alpha 4, gene expression ratio to no drug control (D) ([2]; probe 205884_at) [folds] | ITGA4 integrin, alpha 4, gene expression ratio to no drug control (D) ([2]; probe 205885_s_at) [folds] | ITGA4 integrin, alpha 4, gene expression ratio to no drug control (D) ([2]; probe 213416_at) [folds] | ITGB5 Integrin, beta 5, gene expression ratio to no drug control (D) [2] [folds] | ITGBL1 Integrin, beta-like 1, gene expression ratio to no drug control (D) ([2]; probe 214927_at) [folds] | ITGA6 integrin, alpha 6, gene expression ratio to no drug control (D) ([2]; probe 215177_s_at) [folds] | CD47 antigen (integrin-associated signal transducer), gene expression ratio to no drug control (D) [2] [folds] | ITGB2 integrin, beta 2, gene expression ratio to no drug control (D) [2] [folds] | ITGBL1 Integrin, beta-like 1, gene expression ratio to no drug control (D) ([2]; probe 1557080_s_at) [folds] | expression ratio to the control, integrin family [2] [folds] | CTNNB1 catenin (cadherin-associated protein), beta 1, 88 kDa, gene expression ratio to no drug control (D) [3] [folds] | CTNNAL1 catenin (cadherin-associated protein), alpha-like 1, gene expression ratio to no drug control (D) [3] [folds] | also measured |
| --- | --- | --- | --- | --- | --- | --- | --- | --- | --- | --- | --- | --- | --- | --- | --- | --- | --- | --- | --- | --- | --- |
| C/C=C(/C)C(=O)O[C@H]1[C@H](OC(=O)/C(C)=C\C)[C@@]2(CO)C(CC1(C)C)C1=CCC3[C@@]4(C)CC[C@H](O[C@@H]5OC(C(=O)O)[C@@H](O)C(O[C@@H]6O[C@@H](CO)C(O)C6O)C5O[C@@H]5OC(CO)[C@H](O)C(O)C5O)C(C)(C)C4CC[C@@]3(C)[C@]1(C)[C@@H](O)[C@H]2O (stereo partly drawn) [Xanifolia-Y, 3-O-[β-D-galactopyranosyl (1→2)]-α-L-arabinofuranosy (1→3)-β-D-glucuronopyranosyl-21,22-O-diangeloyl-3β, 15α, 16α, 21β, 22α, 28-hexahydroxyolean-12-ene] | −1.6 | −2.2 | −1.6 | −2.0 | −1.6 | −1.5 | −1.8 | −1.9 | −1.6 | −1.7 | −1.6 | −1.5 | −1.7 | −1.6 | −1.6 | −1.6 | −1.7 | −1.5 to −1.9 | −1.5 | −1.9 | GI50 (60 cancer cell lines): 100 to 1000 nM; LAMC1, gene expression ratio to no drug control (D) [1]: −1.9 folds; CDH2 cadherin 2, type 1, N-cadherin (neuronal), gene expression ratio to no drug control (D) [3]: −1.4 folds; CDH5 cadherin 5, type 2, VE-cadherin, gene expression ratio to no drug control (D) [3]: −1.5 folds; CDH13 cadherin 13, H-cadherin (heart), gene expression ratio to no drug control (D) ([3]; probe 204726_at): −1.8 folds; CDH12 cadherin 12, type 2 (N-cadherin 2), gene expression ratio to no drug control (D) [3]: −1.7 folds; CTNND1 catenin (cadherin-associated, protein), delta 1, gene expression ratio to no drug control (D) [3]: −1.5 folds; CTNNA1 catenin (cadherin-associated protein), alpha 1, 102 kDa, gene expression ratio to no drug control (D) [3]: −1.4 folds; CDH13 cadherin 13, H-cadherin (heart), gene expression ratio to no drug control (D) ([3]; probe 244091_at): −2.0 folds; RGS4 regulator of G-protein signalling 4, gene expression ratio to no drug control (D) ([4]; probe 204337_at): −3.4 folds; RGS4 regulator of G-protein signalling 4, gene expression ratio to no drug control (D) ([4]; probe 204338_s_at): −2.5 folds; RGS4 regulator of G-protein signalling 4, gene expression ratio to no drug control (D) ([4]; probe 204339_s_at): −3.5 folds |
| C/C=C(/C)C(=O)O[C@H]1[C@H](OC(=O)/C(C)=C\C)[C@@]2(CO)C(CC1(C)C)C1=CCC3[C@@]4(C)CC[C@H](O)C(C)(C)C4CC[C@@]3(C)[C@]1(C)[C@@H](O)[C@H]2O (stereo partly shown) [ACH-Y] | −2.0 | −2.0 | −1.7 | −2.0 | −1.5 | −1.1 | −1.3 | −2.0 | −1.7 | −2.0 | −1.7 | −2.2 | −1.8 | 1.1 | −1.1 | −1.4 | −2.5 | −1.1 to −2.5 | 1.2 | −1.6 | LAMC1, gene expression ratio to no drug control (D) ([1]; listed as YM): −1.1 folds; LAMC1, gene expression ratio to no drug control (D) ([1]; listed as YM/ACH-Y): 1.1 folds; CDH2 cadherin 2, type 1, N-cadherin (neuronal), gene expression ratio to no drug control (D) [3]: 1.0 folds; CDH5 cadherin 5, type 2, VE-cadherin, gene expression ratio to no drug control (D) [3]: −1.1 folds; CDH13 cadherin 13, H-cadherin (heart), gene expression ratio to no drug control (D) ([3]; probe 204726_at): −1.7 folds; CDH12 cadherin 12, type 2 (N-cadherin 2), gene expression ratio to no drug control (D) [3]: −2.2 folds; CTNND1 catenin (cadherin-associated, protein), delta 1, gene expression ratio to no drug control (D) [3]: −1.7 folds; CTNNA1 catenin (cadherin-associated protein), alpha 1, 102 kDa, gene expression ratio to no drug control (D) [3]: −1.2 folds; CDH13 cadherin 13, H-cadherin (heart), gene expression ratio to no drug control (D) ([3]; probe 244091_at): −1.7 folds; RGS4 regulator of G-protein signalling 4, gene expression ratio to no drug control (D) ([4]; probe 204337_at): −1.1 folds; RGS4 regulator of G-protein signalling 4, gene expression ratio to no drug control (D) ([4]; probe 204338_s_at): −1.1 folds; RGS4 regulator of G-protein signalling 4, gene expression ratio to no drug control (D) ([4]; probe 204339_s_at): −1.2 folds |
